PubChem BioAssay AID256 (DTP/NCI, 2004)
Several values for one entry are separate records, joined by “and”; a condition that tells them apart may be missing. Equal values may be shown once. Inconclusive results and toxic doses are left out.

System: CD2F1 mice, L1210 leukemia ip, survival T/C
Assay: NCI In Vivo Anticancer Drug Screen. Data for tumor model L1210 Leukemia (intraperitoneal) in CD2F1 (CDF1) mice
Conditions: higher = longer survival
Procedure, shortened: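 Each value reflects a quotient of treated over vehicle control outcomes in mice with a transplanted tumor.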

[1] = endpoint: mean survival time, dose: 100.0 mg/kg/injection, schedule: Q04DX003 (ip), vehicle: saline with Tween-80
[2] = endpoint: mean survival time, dose: 200.0 mg/kg/injection, schedule: Q04DX003 (ip), vehicle: saline with Tween-80
[3] = endpoint: mean survival time, dose: 100.0 mg/kg/injection, schedule: Q01DX009 (ip), vehicle: saline with Tween-80
[4] = endpoint: mean survival time, dose: 200.0 mg/kg/injection, schedule: Q01DX009 (ip), vehicle: saline with Tween-80
[5] = endpoint: mean survival time, dose: 400.0 mg/kg/injection, schedule: Q01DX009 (ip), vehicle: saline with Tween-80
[6] = endpoint: mean survival time, dose: 100.0 mg/kg/injection, schedule: Q04DX002 (ip), vehicle: saline with Tween-80
[7] = endpoint: mean survival time, dose: 200.0 mg/kg/injection, schedule: Q04DX002 (ip), vehicle: saline with Tween-80
[8] = endpoint: mean survival time, dose: 400.0 mg/kg/injection, schedule: Q04DX002 (ip), vehicle: saline with Tween-80
[9] = endpoint: mean survival time, dose: 100.0 mg/kg/injection, schedule: Q01DX001 (ip), vehicle: saline with Tween-80
[10] = endpoint: mean survival time, dose: 200.0 mg/kg/injection, schedule: Q01DX001 (ip), vehicle: saline with Tween-80

In the case of `Cc1[nH]c2ccc([N+](=O)[O-])cc2c1CN(C)C`, the T/C (endpoint: mean survival time, dose: 75.0 mg/kg/injection, schedule: Q01DX001 (ip), vehicle: saline) is reported as 96 % of control and the T/C (endpoint: mean survival time, dose: 150.0 mg/kg/injection, schedule: Q01DX001 (ip), vehicle: saline) is reported as 100 % of control.

With `CC(=O)OCC1OC(Oc2ccccc2)C(OC(C)=O)C(OC(C)=O)C1OC(C)=O` (configuration not stated) the T/C (endpoint: median survival time, dose: 50.0 mg/kg/injection, schedule: Q04DX002 (ip), vehicle: saline with Tween-80) was 100 % of control, the T/C (endpoint: median survival time, dose: 100.0 mg/kg/injection, schedule: Q04DX002 (ip), vehicle: saline with Tween-80) was 100 % of control and the T/C (endpoint: median survival time, dose: 200.0 mg/kg/injection, schedule: Q04DX002 (ip), vehicle: saline with Tween-80) was 111 % of control. The T/C (endpoint: median survival time, dose: 400.0 mg/kg/injection, schedule: Q04DX002 (ip), vehicle: saline with Tween-80) was 88 % of control.

For `CCCCCCCCCCCCCC[N+]1(CC)CCCCC1`, the T/C (endpoint: mean survival time, dose: 0.12 mg/kg/injection, schedule: Q01DX009 (ip), vehicle: saline) was 100 % of control, the T/C (endpoint: mean survival time, dose: 0.39 mg/kg/injection, schedule: Q01DX009 (ip), vehicle: saline) was 103 % of control and the T/C (endpoint: mean survival time, dose: 0.78 mg/kg/injection, schedule: Q01DX009 (ip), vehicle: saline) was 106 % of control. For the same compound, the T/C (endpoint: mean survival time, dose: 1.56 mg/kg/injection, schedule: Q01DX009 (ip), vehicle: saline) was 97 % of control.

In the case of `[N-]=[N+]=NC1CC(n2ccc(N)nc2=O)OC1CO` (configuration not stated), the T/C (endpoint: median survival time, dose: 12.5 mg/kg/injection, schedule: Q01DX005 (ip), vehicle: saline) is reported as 113 % of control, the T/C (endpoint: median survival time, dose: 25.0 mg/kg/injection, schedule: Q01DX005 (ip), vehicle: saline) is reported as 109 % of control and the T/C (endpoint: median survival time, dose: 50.0 mg/kg/injection, schedule: Q01DX005 (ip), vehicle: saline) is reported as 98 % of control. The T/C (endpoint: median survival time, dose: 100.0 mg/kg/injection, schedule: Q01DX005 (ip), vehicle: saline) was 107 % of control and the T/C (endpoint: median survival time, dose: 200.0 mg/kg/injection, schedule: Q01DX005 (ip), vehicle: saline) was 103 % of control.

In the case of `COc1cc(/C=N/NC(=O)c2ccccc2)ccc1O`, the T/C (endpoint: mean survival time, dose: 100.0 mg/kg/injection, schedule: Q01DX009 (ip), vehicle: Klucel (hydroxypropylcellulose) (HPC)) is reported as 97 % of control, the T/C (endpoint: mean survival time, dose: 200.0 mg/kg/injection, schedule: Q01DX009 (ip), vehicle: Klucel (hydroxypropylcellulose) (HPC)) is reported as 97 % of control and the T/C (endpoint: mean survival time, dose: 400.0 mg/kg/injection, schedule: Q01DX009 (ip), vehicle: Klucel (hydroxypropylcellulose) (HPC)) is reported as 97 % of control.

For `O=S(=O)(F)/C=C/c1ccccc1`, the T/C [1] was 88 % of control and the T/C [2] was 97 % of control.

In the case of `CNC1=C(C)C(=O)C2=C(C1=O)C(COC(N)=O)C1(OC)C3NC3CN21` (configuration not stated), the T/C (endpoint: mean survival time, dose: 1.5 mg/kg/injection, schedule: Q01DX001 (ip), vehicle: water) is reported as 102 % of control, the T/C (endpoint: mean survival time, dose: 3.0 mg/kg/injection, schedule: Q01DX001 (ip), vehicle: water) is reported as 100 % of control and the T/C (endpoint: mean survival time, dose: 6.0 mg/kg/injection, schedule: Q01DX001 (ip), vehicle: water) is reported as 108 % of control. For the same compound, the T/C (endpoint: mean survival time, dose: 12.0 mg/kg/injection, schedule: Q01DX001 (ip), vehicle: water) was 118 % of control and the T/C (endpoint: mean survival time, dose: 24.0 mg/kg/injection, schedule: Q01DX001 (ip), vehicle: water) was 124 % of control.

In the case of `COC1CC(O)C2OC(c3ccccc3)OCC2O1` (configuration not stated), the T/C [1] is reported as 104 % of control, the T/C [2] is reported as 93 % of control and the T/C (endpoint: mean survival time, dose: 400.0 mg/kg/injection, schedule: Q04DX003 (ip), vehicle: saline with Tween-80) is reported as 107 % of control.

For `CC(=O)Nc1ccc(S(=O)(=O)OCCC#N)cc1`, the T/C [3] was 98 % of control and the T/C [4] was 91 % of control.

`Oc1ccc2cc3ccccc3cc2c1` was tested, and the T/C (endpoint: mean survival time, dose: 25.0 mg/kg/injection, schedule: Q01DX001 (ip), vehicle: DMSO) was 104 % of control, the T/C (endpoint: mean survival time, dose: 50.0 mg/kg/injection, schedule: Q01DX001 (ip), vehicle: DMSO) was 93 % of control and the T/C (endpoint: mean survival time, dose: 100.0 mg/kg/injection, schedule: Q01DX001 (ip), vehicle: DMSO) was 87 % of control and 93 % of control.

In the case of `CCN(C)N=Nc1ccc(C(N)=O)cc1`, the T/C (endpoint: mean survival time, dose: 18.75 mg/kg/injection, schedule: Q01DX009 (ip), vehicle: Klucel (hydroxypropylcellulose) (HPC)) is reported as 103 % of control, the T/C (endpoint: mean survival time, dose: 75.0 mg/kg/injection, schedule: Q01DX009 (ip), vehicle: Klucel (hydroxypropylcellulose) (HPC)) is reported as 156 % of control and the T/C (endpoint: mean survival time, dose: 100.0 mg/kg/injection, schedule: Q01DX009 (oral), vehicle: saline with Tween-80) is reported as 115 % of control. For the same compound, the T/C (endpoint: mean survival time, dose: 200.0 mg/kg/injection, schedule: Q01DX009 (oral), vehicle: saline with Tween-80) was 120 % of control.

With `COc1ccc(CCN2COc3ccc4ccc(=O)oc4c3C2)cc1OC` the T/C [3] was 92 % of control, the T/C [4] was 97 % of control and the T/C [5] was 97 % of control.

For `CCO[C@@H]1c2cc3c(cc2[C@@H](c2cc(OC)c(O)c(OC)c2)[C@H]2C(=O)OC[C@@H]21)OCO3`, the T/C (endpoint: median survival time, dose: 0.65 mg/kg/injection, schedule: Q01DX009 (ip), vehicle: saline with Tween-80) was 108 % of control, the T/C (endpoint: median survival time, dose: 1.25 mg/kg/injection, schedule: Q01DX009 (ip), vehicle: saline with Tween-80) was 109 % of control and the T/C (endpoint: median survival time, dose: 2.5 mg/kg/injection, schedule: Q01DX009 (ip), vehicle: saline with Tween-80) was 106 % of control. For the same compound, the T/C (endpoint: median survival time, dose: 5.0 mg/kg/injection, schedule: Q01DX009 (ip), vehicle: saline with Tween-80) was 101 % of control, the T/C (endpoint: median survival time, dose: 10.0 mg/kg/injection, schedule: Q01DX009 (ip), vehicle: saline with Tween-80) was 100 % of control and 109 % of control and the T/C (endpoint: median survival time, dose: 20.0 mg/kg/injection, schedule: Q01DX009 (ip), vehicle: saline with Tween-80) was 94 % of control. For the same compound, the T/C (endpoint: median survival time, dose: 40.0 mg/kg/injection, schedule: Q01DX009 (ip), vehicle: saline with Tween-80) was 97 % of control.

With `Nc1ccnc(SCc2ccc3ccccc3c2)n1` the T/C [6] was 93 % of control, the T/C [7] was 101 % of control and the T/C [8] was 101 % of control.

In the case of `O=S(=O)(CCCl)c1ccc(Cl)cc1`, the T/C [6] is reported as 96 % of control and the T/C [7] is reported as 101 % of control.

`NC(=O)C(=O)N/N=C/c1ccc2c(c1)CCC2` was tested, and the T/C (endpoint: mean survival time, dose: 12.5 mg/kg/injection, schedule: Q04DX003 (ip), vehicle: saline with Tween-80) was 97 % of control, the T/C (endpoint: mean survival time, dose: 25.0 mg/kg/injection, schedule: Q04DX003 (ip), vehicle: saline with Tween-80) was 94 % of control and the T/C (endpoint: mean survival time, dose: 50.0 mg/kg/injection, schedule: Q04DX003 (ip), vehicle: saline with Tween-80) was 92 % of control.

In the case of `CC(C)(C(=O)c1ccccc1)C(=O)c1ccccc1`, the T/C (endpoint: mean survival time, dose: 50.0 mg/kg/injection, schedule: Q01DX001 (ip), vehicle: saline with Tween-80) is reported as 104 % of control, the T/C [9] is reported as 102 % of control and the T/C [3] is reported as 100 % of control. The T/C [10] was 100 % of control, the T/C [4] was 94 % of control and the T/C [5] was 98 % of control.

In the case of `N=C(N)c1nn(C2OC(CO)C(O)C2O)c2nc[nH]c(=O)c12` (configuration not stated), the T/C (endpoint: median survival time, dose: 3.12 mg/kg/injection, schedule: Q01DX005 (ip), vehicle: Klucel + Tween-80) is reported as 122 % of control, the T/C (endpoint: median survival time, dose: 12.5 mg/kg/injection, schedule: Q01DX005 (ip), vehicle: Klucel + Tween-80) is reported as 153 % of control and the T/C (endpoint: median survival time, dose: 25.0 mg/kg/injection, schedule: Q01DX005 (ip), vehicle: Klucel + Tween-80) is reported as 120 % of control and 89 % of control.

In the case of `CC1=C(/C=C/C(=O)O)C(C)(C)CCC1`, the T/C [6] is reported as 92 % of control, the T/C [7] is reported as 96 % of control and the T/C [8] is reported as 92 % of control.

In the case of `CCOC(=O)C1C(=O)N(Cc2ccccc2)C(=O)N1C` (configuration not stated), the T/C (endpoint: mean survival time, dose: 12.5 mg/kg/injection, schedule: Q01DX009 (ip), vehicle: other) is reported as 98 % of control, the T/C (endpoint: mean survival time, dose: 25.0 mg/kg/injection, schedule: Q01DX009 (ip), vehicle: other) is reported as 104 % of control and the T/C (endpoint: mean survival time, dose: 50.0 mg/kg/injection, schedule: Q01DX009 (ip), vehicle: other) is reported as 100 % of control. The T/C (endpoint: mean survival time, dose: 100.0 mg/kg/injection, schedule: Q01DX009 (ip), vehicle: other) was 100 % of control and the T/C (endpoint: mean survival time, dose: 200.0 mg/kg/injection, schedule: Q01DX009 (ip), vehicle: other) was 100 % of control.

In the case of `O=C1O/C(=C\c2ccccc2)c2c(Br)c(Br)c(Br)c(Br)c21`, the T/C (endpoint: mean survival time, dose: 37.5 mg/kg/injection, schedule: Q01DX009 (ip), vehicle: saline) is reported as 96 % of control, the T/C (endpoint: mean survival time, dose: 75.0 mg/kg/injection, schedule: Q01DX009 (ip), vehicle: saline) is reported as 96 % of control and the T/C (endpoint: mean survival time, dose: 150.0 mg/kg/injection, schedule: Q01DX009 (ip), vehicle: saline) is reported as 98 % of control. The T/C (endpoint: mean survival time, dose: 300.0 mg/kg/injection, schedule: Q01DX009 (ip), vehicle: saline) was 100 % of control.

For `O=C1OC(c2c[nH]c3ccccc23)c2ccccc21` (configuration not stated), the T/C [9] was 94 % of control, the T/C [10] was 94 % of control and the T/C (endpoint: mean survival time, dose: 400.0 mg/kg/injection, schedule: Q01DX001 (ip), vehicle: saline with Tween-80) was 87 % of control.

With `O=[N+]([O-])c1ccc(CSCc2ccc([N+](=O)[O-])cc2)cc1` the T/C (endpoint: mean survival time, dose: 50.0 mg/kg/injection, schedule: Q04DX003 (ip), vehicle: Klucel (hydroxypropylcellulose) (HPC)) was 98 % of control, the T/C (endpoint: mean survival time, dose: 100.0 mg/kg/injection, schedule: Q04DX003 (ip), vehicle: Klucel (hydroxypropylcellulose) (HPC)) was 92 % of control and the T/C (endpoint: mean survival time, dose: 200.0 mg/kg/injection, schedule: Q04DX003 (ip), vehicle: Klucel (hydroxypropylcellulose) (HPC)) was 97 % of control.
